Experimental data published in ChEMBL document CHEMBL1201862, “PubChem BioAssay data set” (2004).
Values joined by “and” are separate entries in the source; they are usually repeats but may differ in a detail not shown here. Equal values may be shown once. Active and inactive are the calls of the source.

How the values were obtained:
[1] = molecular target: Sphingosine 1-phosphate receptor 1 (Homo sapiens, UniProt P21453); format: functional;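 also: Tango beta-arrestin reporter U2OS cells stimulated with S1P near its EC80; inhibitor potency meaning antagonism of receptor activation by the natural agonist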
[2] = system: INS1; assay: INS-1E survival protection against cytokine death – cell-based, luminescence, retest, dose response (AID 449756); format: functional; settings: Rattus norvegicus;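 also: cell death triggered by IL-1 beta plus TNF-alpha plus IFN-gamma mixture; protective hits raise ATP signal compared with cytokine alone wells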
[3] = HIV-1 AD8 envelope cell-cell fusion blockers – cherry-pick, dose response (AID 652062); format: functional, cell-based;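 also: luciferase signal from cell-cell fusion driven by HIV-1 clade B AD8 Env; potency is for inhibitors of fusion seen as a drop in luminescence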
[4] = Trypanosoma cruzi growth suppression in host cells – NIH3T3 host cells, beta-gal luminescence, confirmation (AID 2044); format: functional, cell-based;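 also: intracellular parasites grown in NIH/3T3 mouse fibroblasts as host cells; luminescent beta-galactosidase reporter signal from transgenic T. cruzi replicating inside host cells; inhibitors lower the luminescence signal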
[5] = molecular target: T1, Ubiquitin-conjugating enzyme E2 N (Homo sapiens, UniProt P61088); format: functional;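 also: Dose-response confirmation in a TR-FRET assay detecting UBC13-driven polyubiquitin chain formation, inhibition measured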
T1 sequence (P61088 whole entry): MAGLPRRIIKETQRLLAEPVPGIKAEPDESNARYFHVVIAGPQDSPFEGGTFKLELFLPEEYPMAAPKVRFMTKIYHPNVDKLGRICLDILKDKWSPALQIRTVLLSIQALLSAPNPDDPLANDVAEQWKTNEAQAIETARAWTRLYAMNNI

[6] = viability of uninfected HEp-2 cells – cell-based, HTS, cytotoxicity control for RSV inhibitor project, dose response (AID 2410); format: functional; settings: human respiratory syncytial virus
[7] = molecular target: T2, Hexokinase-1 (Homo sapiens, UniProt P19367); assay: HK1 enzyme activation by HKDC1 hits – biochemical, selectivity assay for HKDC1 activator project, dose response (AID 504762); format: functional
T2 sequence (P19367 whole entry): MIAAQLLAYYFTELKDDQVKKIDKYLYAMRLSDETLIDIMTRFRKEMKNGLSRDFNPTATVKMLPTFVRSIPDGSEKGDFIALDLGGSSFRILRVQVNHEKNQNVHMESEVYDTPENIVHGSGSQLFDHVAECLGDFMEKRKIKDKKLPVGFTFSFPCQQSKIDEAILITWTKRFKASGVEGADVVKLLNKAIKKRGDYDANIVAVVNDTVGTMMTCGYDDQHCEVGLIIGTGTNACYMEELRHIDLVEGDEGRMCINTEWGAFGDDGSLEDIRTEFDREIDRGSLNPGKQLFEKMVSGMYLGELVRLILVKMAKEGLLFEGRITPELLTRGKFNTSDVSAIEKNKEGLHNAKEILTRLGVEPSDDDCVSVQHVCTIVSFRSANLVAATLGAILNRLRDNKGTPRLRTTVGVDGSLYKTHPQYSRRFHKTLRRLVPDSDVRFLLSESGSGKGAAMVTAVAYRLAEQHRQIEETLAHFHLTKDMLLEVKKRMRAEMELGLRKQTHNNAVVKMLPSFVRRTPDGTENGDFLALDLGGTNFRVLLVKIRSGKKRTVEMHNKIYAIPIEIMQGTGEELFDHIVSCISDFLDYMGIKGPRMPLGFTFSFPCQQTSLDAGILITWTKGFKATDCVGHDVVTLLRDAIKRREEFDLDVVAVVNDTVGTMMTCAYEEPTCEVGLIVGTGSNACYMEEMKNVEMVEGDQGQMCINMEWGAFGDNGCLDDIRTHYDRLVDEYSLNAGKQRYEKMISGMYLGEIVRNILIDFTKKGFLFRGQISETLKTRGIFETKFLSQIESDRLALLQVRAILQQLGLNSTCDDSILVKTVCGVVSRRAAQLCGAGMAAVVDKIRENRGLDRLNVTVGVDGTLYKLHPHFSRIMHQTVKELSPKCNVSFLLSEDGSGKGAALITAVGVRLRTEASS

[8] = viability of PTEN-deleted HCT116 cells – cell-based, HCT116 PTEN knockout, dose response (AID 1047); format: functional;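 also: HCT116 colon tumor cells with PTEN knocked out; cells exposed to compound for 60 hours before readout; potency for loss of cell viability measured by luminescence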
[9] = molecular target: Genome polyprotein (dengue virus type 2, UniProt P29990); assay: flavivirus cap methylation enzyme inhibition – biochemical, confirmation dose response, primary screen (AID 588689); format: functional
[10] = molecular target: T3, Short transient receptor potential channel 4 (Mus musculus, UniProt Q9QUQ5); assay: block of DAMGO-driven TRPC4 calcium entry – cell-based, HEK293 TRPC4/mu-opioid, Fluo-4 calcium, dose response (AID 434942); format: functional;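 also: potency of inhibitors blocking the TRPC4 calcium response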
T3 sequence (Q9QUQ5 whole entry): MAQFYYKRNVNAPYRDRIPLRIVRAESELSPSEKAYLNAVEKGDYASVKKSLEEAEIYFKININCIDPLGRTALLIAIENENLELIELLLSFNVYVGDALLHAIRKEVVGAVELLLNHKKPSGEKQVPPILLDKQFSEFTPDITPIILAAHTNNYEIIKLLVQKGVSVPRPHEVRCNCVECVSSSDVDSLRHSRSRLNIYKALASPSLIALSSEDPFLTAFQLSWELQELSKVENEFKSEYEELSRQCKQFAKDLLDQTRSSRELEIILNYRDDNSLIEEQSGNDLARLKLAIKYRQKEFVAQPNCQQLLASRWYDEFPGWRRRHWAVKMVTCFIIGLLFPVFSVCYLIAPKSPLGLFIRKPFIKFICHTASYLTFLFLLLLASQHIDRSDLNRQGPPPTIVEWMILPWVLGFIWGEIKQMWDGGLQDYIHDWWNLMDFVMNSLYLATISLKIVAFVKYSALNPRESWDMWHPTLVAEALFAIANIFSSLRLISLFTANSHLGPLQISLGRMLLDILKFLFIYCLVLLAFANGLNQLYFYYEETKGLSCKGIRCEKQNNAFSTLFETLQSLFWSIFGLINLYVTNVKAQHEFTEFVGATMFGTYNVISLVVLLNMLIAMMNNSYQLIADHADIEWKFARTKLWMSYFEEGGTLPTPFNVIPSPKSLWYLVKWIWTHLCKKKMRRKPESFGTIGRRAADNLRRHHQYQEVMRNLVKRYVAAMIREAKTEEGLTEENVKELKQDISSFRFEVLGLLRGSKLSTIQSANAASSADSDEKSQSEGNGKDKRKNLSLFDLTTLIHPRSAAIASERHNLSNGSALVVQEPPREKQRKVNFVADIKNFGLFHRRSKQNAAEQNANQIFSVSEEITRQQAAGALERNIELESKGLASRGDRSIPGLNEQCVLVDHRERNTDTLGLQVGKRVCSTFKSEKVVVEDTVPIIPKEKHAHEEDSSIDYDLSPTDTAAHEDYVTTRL

Sphingosine 1-phosphate receptor 1, sequence (P21453 whole entry): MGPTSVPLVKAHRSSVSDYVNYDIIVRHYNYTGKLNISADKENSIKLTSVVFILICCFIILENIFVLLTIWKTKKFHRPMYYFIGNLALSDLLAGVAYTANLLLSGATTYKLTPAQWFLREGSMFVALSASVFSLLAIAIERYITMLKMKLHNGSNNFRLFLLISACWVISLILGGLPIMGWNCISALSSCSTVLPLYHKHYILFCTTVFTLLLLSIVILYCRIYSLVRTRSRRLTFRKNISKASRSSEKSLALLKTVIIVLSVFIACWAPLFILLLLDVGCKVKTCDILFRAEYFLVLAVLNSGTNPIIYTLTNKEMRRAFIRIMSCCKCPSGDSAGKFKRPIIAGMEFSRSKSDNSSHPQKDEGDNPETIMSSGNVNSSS
Genome polyprotein, sequence (P29990 2492-3391 limits assumed): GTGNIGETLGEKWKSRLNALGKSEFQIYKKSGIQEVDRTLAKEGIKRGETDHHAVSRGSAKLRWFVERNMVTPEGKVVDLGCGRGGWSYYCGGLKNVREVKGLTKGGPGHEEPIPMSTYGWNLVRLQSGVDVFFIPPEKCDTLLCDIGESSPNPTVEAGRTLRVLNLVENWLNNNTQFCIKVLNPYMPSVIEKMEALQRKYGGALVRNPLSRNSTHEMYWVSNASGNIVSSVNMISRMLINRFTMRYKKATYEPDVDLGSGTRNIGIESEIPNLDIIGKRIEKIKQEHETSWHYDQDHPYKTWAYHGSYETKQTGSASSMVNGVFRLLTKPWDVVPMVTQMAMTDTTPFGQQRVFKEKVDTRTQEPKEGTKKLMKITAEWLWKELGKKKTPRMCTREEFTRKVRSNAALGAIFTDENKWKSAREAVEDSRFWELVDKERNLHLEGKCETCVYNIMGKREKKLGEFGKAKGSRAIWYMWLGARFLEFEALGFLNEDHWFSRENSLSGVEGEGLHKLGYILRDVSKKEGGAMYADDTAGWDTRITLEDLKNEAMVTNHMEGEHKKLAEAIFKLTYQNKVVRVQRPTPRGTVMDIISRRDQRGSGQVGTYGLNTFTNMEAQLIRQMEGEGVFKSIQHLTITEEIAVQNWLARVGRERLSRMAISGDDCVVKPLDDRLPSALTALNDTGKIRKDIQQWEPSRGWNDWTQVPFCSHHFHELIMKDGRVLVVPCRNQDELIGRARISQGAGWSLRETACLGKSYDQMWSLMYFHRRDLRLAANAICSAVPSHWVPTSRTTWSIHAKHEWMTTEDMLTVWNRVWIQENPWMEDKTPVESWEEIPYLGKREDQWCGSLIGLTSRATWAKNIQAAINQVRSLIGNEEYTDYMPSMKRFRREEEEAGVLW

Q: With `O=C(Nc1ccccc1Cl)/C(Cl)=C(\Cl)[S+]([O-])c1ccccc1` (stereo not given) as the compound, how does the IC50 [1] read?
A: The IC50 was 10.3 µM (not active).

Q: And the AC50 [2]?
A: The AC50 was 2.07 µM (active).

Q: Which AC50 [3] does the source give for `CCCCCCCCCCCCCCCCn1cc[n+](C)c1` here?
A: The AC50 was 5.26 µM (active).

Q: What about the EC50 [4] of the same compound?
A: Its EC50 is < 100 nM (active) and 103 nM (active).

Q: What about the IC50 [5] of the same compound?
A: The IC50 was > 20 µM (inactive).

Q: Which results are given for `Cc1cc(C)nc(/N=c2/ssnc2Cl)c1`?
A: CC50 [6]: 17.4 µM (active); EC50 [7]: 39.9 µM (inactive); EC50 [8]: 52.3 µM (active)

Q: Which results are given for `Cc1ccc(C)c(S(=O)(=O)/N=C2\C=C(NS(=O)(=O)c3ccccc3)C(=O)c3ccccc32)c1`?
A: IC50 [9]: 97.8 µM (active); EC50 [10]: 6.68 µM (active)
